Data reported in US20190216712A1, “Hair dye composition, preparation method, and application method thereof” (SHANGHAI CLINICAL ENGINE TECHNOLOGY DEVELOPMENT CO., LTD., priority 2017, published 2019).
Like-named read-outs stand apart in the source and are kept apart here.

Test system: human epithelial-derived cells (293T)
Test: CCK-8 test of killing ability to cells (Embodiment 14)
Assay type: cell-based
Protocol: According to embodiments 1-3, water-soluble pigment solubilizing carrier dye was prepared, while cationic carrier ([…]) was used. First, human epithelial-derived cells (293T) were cultured, which was divided into three groups corresponding to a polyethyleneimine-co-isopropylacrylamide (water-soluble pigment solubilizing carrier) group, a polyethyleneimine-co-isopropylacrylamide (a water-soluble pigment solubilizing carrier) dye, and a commercially available cationic carrier group; the cells were cultured with commercially available cell culture medium ([…]) for 24 hours to obtain cells in the logarithmic growth phase; at this time, the same concentration gradient of polyethyleneimine-co-isopropylacrylamide (water-soluble pigment solubilizing carrier), polyethyleneimine-co-isopropylacrylamide (a water-soluble pigment solubilizing carrier)-pigment, and commercially available cationic carrier were added to the culture dishes of the three groups of cells; after 24 hours of culture, the CCK-8 test kit was used to examine the killing ability of the three groups of systems to the cells.

CCCCCCCCCCCCOS(=O)(=O)[O-].[Na+] [commercially available cationic carrier, sodium lauryl sulfate]
damage of cells (293T cells, concentration gradient, 24 hours of culture): cell death was rapid

polyethyleneimine-co-isopropylacrylamide
damage of cells: hardly damaged
